Data as given in PubChem BioAssay AID2060332 (Molecular Pharmacology Branch, DTP, NCI, 2025).
Where “and” joins values, the source holds several entries; their conditions need not be identical. Identical values can stand only once.

Test system: LG0567-F671-PDC multi-cell spheroid viability
Assay: Anticancer human tumor LG0567-F671-PDC patient-derived lung adenocarcinoma cell line growth inhibition [IpAb]
Conditions: for viability, T/C: stronger effect = lower value; active means viability on the fitted dose curve at most 10% of control; inactive means the rest
Procedure, shortened: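 Combinations with ipatasertib or abemaciclib were tested on tumour spheroids holding HUVEC (25%) and MSC (15%) alongside 60% malignant cells. Top concentration was at or near clinical Cmax (10 microM if undefined), descending in half-log steps.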

[1] = curve of first compound, second compound 0.1 µM
[2] = curve of first compound, second compound 0.316 µM
[3] = curve of first compound, second compound 1 µM
[4] = curve of first compound, second compound 3.16 µM
[5] = curve of first compound, second compound 10 µM
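Further: viability read after 7 days of drug exposure.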
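Wherever viability, T/C is given: 100% = DMSO vehicle control luminescence.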

CC(C)n1nc(-c2ccc3oc(N)nc3c2)c2c(N)ncnc21 + CC(C)NCC(C(=O)N1CCN(c2ncnc3c2C(C)CC3O)CC1)c1ccc(Cl)cc1
11.7 nM: IC50 [5]
27.1 nM: IC50 [4]
80.4 nM: IC50 [1]
inactive: viability, T/C (second compound 0.1 µM, first compound 0.000316 µM) 89% | viability, T/C (second compound 0.1 µM, first compound 0.001 µM) 99.4% | viability, T/C (second compound 0.1 µM, first compound 0.00316 µM) 76.8% | viability, T/C (second compound 0.1 µM, first compound 0.01 µM) 65.8% | viability, T/C (second compound 0.1 µM, first compound 0.0316 µM) 59.1% | viability, T/C (second compound 0.1 µM, first compound 0.1 µM) 46.4% | viability, T/C (second compound 0.316 µM, first compound 0.000316 µM) 76% | viability, T/C (second compound 0.316 µM, first compound 0.001 µM) 76% | viability, T/C (second compound 0.316 µM, first compound 0.00316 µM) 87% | viability, T/C (second compound 0.316 µM, first compound 0.01 µM) 66.5% | viability, T/C (second compound 0.316 µM, first compound 0.0316 µM) 50.4% | viability, T/C (second compound 0.316 µM, first compound 0.1 µM) 59.5% | viability, T/C (second compound 1 µM, first compound 0.000316 µM) 70.3% | viability, T/C (second compound 1 µM, first compound 0.001 µM) 81.3% | viability, T/C (second compound 1 µM, first compound 0.00316 µM) 76.6% | viability, T/C (second compound 1 µM, first compound 0.01 µM) 57% | viability, T/C (second compound 1 µM, first compound 0.0316 µM) 57.9% | viability, T/C (second compound 1 µM, first compound 0.1 µM) 46.4% | viability, T/C (second compound 3.16 µM, first compound 0.000316 µM) 97.2% | viability, T/C (second compound 3.16 µM, first compound 0.001 µM) 71.7% | viability, T/C (second compound 3.16 µM, first compound 0.00316 µM) 73% | viability, T/C (second compound 3.16 µM, first compound 0.01 µM) 62.7% | viability, T/C (second compound 3.16 µM, first compound 0.0316 µM) 45.5% | viability, T/C (second compound 3.16 µM, first compound 0.1 µM) 39.9% | viability, T/C (second compound 10 µM, first compound 0.000316 µM) 72.9% | viability, T/C (second compound 10 µM, first compound 0.001 µM) 72.2% | viability, T/C (second compound 10 µM, first compound 0.00316 µM) 63.9% | viability, T/C (second compound 10 µM, first compound 0.01 µM) 53.8% | viability, T/C (second compound 10 µM, first compound 0.0316 µM) 37% | viability, T/C (second compound 10 µM, first compound 0.1 µM) 43%
> 100 nM: IC50 [2] | IC50 [3]

CC(C)(C)c1cnc(CSc2cnc(NC(=O)C3CCNCC3)s2)o1 + CC(C)NCC(C(=O)N1CCN(c2ncnc3c2C(C)CC3O)CC1)c1ccc(Cl)cc1
158 nM: IC50 [3]
inactive: viability, T/C (second compound 0.1 µM, first compound 0.00949 µM) 117% | viability, T/C (second compound 0.1 µM, first compound 0.03 µM) 110% | viability, T/C (second compound 0.1 µM, first compound 0.0949 µM) 96.3% | viability, T/C (second compound 0.316 µM, first compound 0.00949 µM) 73.6% | viability, T/C (second compound 0.316 µM, first compound 0.03 µM) 111% | viability, T/C (second compound 0.316 µM, first compound 0.0949 µM) 72.7% | viability, T/C (second compound 1 µM, first compound 0.00949 µM) 95.6% | viability, T/C (second compound 1 µM, first compound 0.03 µM) 117% | viability, T/C (second compound 1 µM, first compound 0.0949 µM) 88.8% | viability, T/C (second compound 3.16 µM, first compound 0.00949 µM) 97.9% | viability, T/C (second compound 3.16 µM, first compound 0.03 µM) 113% | viability, T/C (second compound 3.16 µM, first compound 0.0949 µM) 82.9% | viability, T/C (second compound 10 µM, first compound 0.00949 µM) 79.2% | viability, T/C (second compound 10 µM, first compound 0.03 µM) 74.1% | viability, T/C (second compound 10 µM, first compound 0.0949 µM) 88%
active: viability, T/C (second compound 0.1 µM, first compound 0.3 µM) 3.55% | viability, T/C (second compound 0.1 µM, first compound 0.949 µM) 1.37% | viability, T/C (second compound 0.1 µM, first compound 3 µM) 0.93% | viability, T/C (second compound 0.316 µM, first compound 0.3 µM) 2.55% | viability, T/C (second compound 0.316 µM, first compound 0.949 µM) 1.26% | viability, T/C (second compound 0.316 µM, first compound 3 µM) 0.62% | viability, T/C (second compound 1 µM, first compound 0.3 µM) 2.06% | viability, T/C (second compound 1 µM, first compound 0.949 µM) 0.88% | viability, T/C (second compound 1 µM, first compound 3 µM) 0.72% | viability, T/C (second compound 3.16 µM, first compound 0.3 µM) 2.53% | viability, T/C (second compound 3.16 µM, first compound 0.949 µM) 0.89% | viability, T/C (second compound 3.16 µM, first compound 3 µM) 0.79% | viability, T/C (second compound 10 µM, first compound 0.3 µM) 1.97% | viability, T/C (second compound 10 µM, first compound 0.949 µM) 0.87% | viability, T/C (second compound 10 µM, first compound 3 µM) 0.7%
148 nM: IC50 [5]
137 nM: IC50 [2]
169 nM: IC50 [1]
152 nM: IC50 [4]

Cn1nccc1Nc1nccc(-c2ccn(C(CO)c3ccc(Cl)c(F)c3)c(=O)c2)n1 (configuration not stated)
inactive: viability, T/C (compound 0.0316 µM) 96.4% and 76.2% | viability, T/C (compound 0.1 µM) 50.8% and 58.4% | viability, T/C (compound 0.316 µM) 45% and 40.1% | viability, T/C (compound 1 µM) 41.1% and 29.3% | viability, T/C (compound 3.16 µM) 33.5% and 35.7% | viability, T/C (compound 10 µM) 36.3% and 34.5%
138 nM and 166 nM: IC50 (curve of compound)
